From patent publication US20180194762A1 (Pharmacyclics LLC, priority 2017, published 2018)
Where two headings read alike, the source gives them in different places.

Assays:
Assay type in all cases: biochemical
Btk = biological target: T1, Btk (Homo sapiens, UniProt Q06187); assay: Btk in vitro inhibitory activity (one of Method A TR-FRET, Method B electrophoretic mobility shift, Method C radiometric filter binding)
T1 construct: purified from insect cells as a full-length construct containing a N-terminal 6X-His tag; His6 (N); made in house; host or cells: insect cells (Method C)
In short: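 Method A: TR-FRET with 0.5 nM Btk at [ATP]=Km, EDTA-quenched, 665/615 nm ratio; Ki(app) converted to IC50. Method B: 1 nM full-length His6 human BTK, 1 μM FAM peptide, pH 7.5, mobility-shift product/sum ratio, 12-point 4-parameter fit. Method C: radiometric filter binding, 8 nM His-tagged BTK, 0.2 mg/mL poly-Glu-Tyr.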

TEC = biological target: T2, TEC (Homo sapiens, UniProt P42680); assay: Inhibition of a panel of kinases (in vitro HotSpot kinase assay, 33P-ATP, 1 μM ATP); conditions: for IC50: HotSpot kinase assay, 1 μM ATP; for TEC/Btk: ratio of TEC IC50 to Btk IC50 (selectivity)
T2 sequence (P42680 1-631): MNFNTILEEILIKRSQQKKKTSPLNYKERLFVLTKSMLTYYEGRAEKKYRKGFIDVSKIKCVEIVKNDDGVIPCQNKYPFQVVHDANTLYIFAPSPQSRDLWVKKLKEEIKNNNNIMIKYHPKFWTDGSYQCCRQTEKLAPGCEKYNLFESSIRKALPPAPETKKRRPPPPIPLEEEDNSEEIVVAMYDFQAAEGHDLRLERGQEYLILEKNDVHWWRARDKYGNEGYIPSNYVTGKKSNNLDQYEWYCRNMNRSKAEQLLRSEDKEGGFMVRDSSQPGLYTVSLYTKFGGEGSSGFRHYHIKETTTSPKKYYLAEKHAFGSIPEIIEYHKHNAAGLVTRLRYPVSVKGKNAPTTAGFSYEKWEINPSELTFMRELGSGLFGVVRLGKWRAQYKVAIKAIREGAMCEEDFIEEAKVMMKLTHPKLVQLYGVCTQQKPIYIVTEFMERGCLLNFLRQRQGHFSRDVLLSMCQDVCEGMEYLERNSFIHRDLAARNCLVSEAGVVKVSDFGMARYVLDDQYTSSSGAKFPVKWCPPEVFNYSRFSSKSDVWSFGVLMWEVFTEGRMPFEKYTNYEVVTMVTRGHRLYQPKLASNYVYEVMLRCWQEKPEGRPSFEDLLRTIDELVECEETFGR
In short: (§1)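 Purified kinase enzymes were incubated with an appropriate substrate and 33P-labelled ATP at 1 μM ATP. Inhibition was measured radiometrically from incorporation of the 33P label.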

panel of kinases = biological target: T3, panel of kinases (Homo sapiens, UniProt P51813); assay: Inhibition of a panel of kinases (in vitro HotSpot kinase assay, 33P-ATP, 1 μM ATP), other kinases; conditions: BMX wild-type, read-out: BMX-WT IC50
T3 sequence (P51813 1-675): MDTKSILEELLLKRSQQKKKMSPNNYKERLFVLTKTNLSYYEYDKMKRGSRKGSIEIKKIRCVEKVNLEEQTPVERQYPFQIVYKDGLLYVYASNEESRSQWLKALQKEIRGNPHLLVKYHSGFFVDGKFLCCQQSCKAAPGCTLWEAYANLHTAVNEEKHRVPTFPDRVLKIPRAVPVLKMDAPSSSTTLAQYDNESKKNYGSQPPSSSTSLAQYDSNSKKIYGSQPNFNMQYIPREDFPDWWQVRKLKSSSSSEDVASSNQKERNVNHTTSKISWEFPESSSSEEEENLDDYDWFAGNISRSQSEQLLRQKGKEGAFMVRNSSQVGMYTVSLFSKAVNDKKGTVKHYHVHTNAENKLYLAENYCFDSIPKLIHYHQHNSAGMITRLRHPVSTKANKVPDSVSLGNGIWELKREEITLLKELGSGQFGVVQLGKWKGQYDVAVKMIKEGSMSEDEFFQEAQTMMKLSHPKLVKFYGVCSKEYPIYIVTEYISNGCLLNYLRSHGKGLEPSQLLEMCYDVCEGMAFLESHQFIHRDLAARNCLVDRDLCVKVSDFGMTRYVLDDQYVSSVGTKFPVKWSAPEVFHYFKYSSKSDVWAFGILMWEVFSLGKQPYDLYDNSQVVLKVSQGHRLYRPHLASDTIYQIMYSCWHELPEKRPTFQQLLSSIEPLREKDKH
In short: as §1

[1] = wild-type Btk, read-out: Btk-WT IC50
[2] = method is one of A, B or C, not stated which, read-out: IC50 values against Btk

T1 sequence (Q06187 whole entry): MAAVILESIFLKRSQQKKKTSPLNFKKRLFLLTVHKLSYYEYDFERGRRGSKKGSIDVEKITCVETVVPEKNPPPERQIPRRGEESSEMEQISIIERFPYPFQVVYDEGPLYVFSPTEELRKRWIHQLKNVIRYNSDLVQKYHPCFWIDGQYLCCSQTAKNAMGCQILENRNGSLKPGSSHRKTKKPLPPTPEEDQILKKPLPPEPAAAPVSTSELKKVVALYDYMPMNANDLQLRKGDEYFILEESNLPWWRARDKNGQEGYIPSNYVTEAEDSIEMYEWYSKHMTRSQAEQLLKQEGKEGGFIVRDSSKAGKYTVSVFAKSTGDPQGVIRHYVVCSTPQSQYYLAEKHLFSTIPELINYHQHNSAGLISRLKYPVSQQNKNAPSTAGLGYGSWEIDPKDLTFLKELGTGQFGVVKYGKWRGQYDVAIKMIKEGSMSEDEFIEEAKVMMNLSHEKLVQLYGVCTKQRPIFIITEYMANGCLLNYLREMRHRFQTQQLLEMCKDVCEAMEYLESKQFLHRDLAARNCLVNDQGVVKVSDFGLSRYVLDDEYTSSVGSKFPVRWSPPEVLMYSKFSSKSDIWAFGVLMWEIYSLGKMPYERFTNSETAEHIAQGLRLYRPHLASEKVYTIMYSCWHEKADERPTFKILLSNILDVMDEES

SMILES | IC50 (Btk; [1]) | IC50 (TEC) | TEC/Btk (TEC) | IC50 (panel of kinases) | IC50 (Btk; [2])
C[C@@H](NC(=O)c1noc(C(C)(C)C)n1)c1ccc(-c2ccnc3[nH]nc(N[C@@H]4CCNC4)c23)cc1 [Example 73, 5-tert-butyl-N-[(1R)-1-[4-(3-{[(3R)-pyrrolidin-3-yl]amino}-1H-pyrazolo[3,4-b]pyridin-4-yl)phenyl]ethyl]-1,2,4-oxadiazole-3-carboxamide] | 37.9 nM | > 10000 nM | >100 | > 10000 nM | 
CC(C)(C)c1nc(C(=O)NCc2cc(F)cc(-c3ccnc4[nH]nc(N[C@@H]5CCNC5)c34)c2)no1 [Example 74, 5-tert-butyl-N-{[3-fluoro-5-(3-{[(3R)-pyrrolidin-3-yl]amino}-1H-pyrazolo[3,4-b]pyridin-4-yl)phenyl]methyl}-1,2,4-oxadiazole-3-carboxamide] | > 10000 nM | > 10000 nM |  | > 10000 nM | 
CC(C)(C)c1ccc(C(=O)NCc2cc(F)cc(-c3ccnc4[nH]nc(N[C@@H]5CCNC5)c34)c2)cc1 [Example 75, 4-tert-butyl-N-{[3-fluoro-5-(3-{[(3R)-pyrrolidin-3-yl]amino}-1H-pyrazolo[3,4-b]pyridin-4-yl)phenyl]methyl}benzamide] | > 10000 nM | > 10000 nM |  | > 10000 nM | 
CC(C)(C)n1cc(C(=O)NCc2ccc(-c3ccnc4[nH]nc(N[C@@H]5CCNC5)c34)cc2F)cn1 [Example 76, 1-tert-butyl-N-{[2-fluoro-4-(3-{[(3R)-pyrrolidin-3-yl]amino}-1H-pyrazolo[3,4-b]pyridin-4-yl)phenyl]methyl}-1H-pyrazole-4-carboxamide] | 51.1 nM | 8720 nM | 171 | 8360 nM | 
CC(C)(C)c1nnc(C(=O)NCc2ccc(-c3ccnc4[nH]nc(N[C@@H]5CCNC5)c34)cc2F)o1 [Example 77, 5-tert-butyl-N-{[2-fluoro-4-(3-{[(3R)-pyrrolidin-3-yl]amino}-1H-pyrazolo[3,4-b]pyridin-4-yl)phenyl]methyl}-1,3,4-oxadiazole-2-carboxamide] | 159 nM | > 10000 nM | >100 | > 10000 nM | 
CC(C)(C)c1n[nH]c(C(=O)NCc2ccc(-c3ccnc4[nH]nc(N[C@@H]5CCNC5)c34)cc2F)n1 [Example 78, 3-tert-butyl-N-{[2-fluoro-4-(3-{[(3R)-pyrrolidin-3-yl]amino}-1H-pyrazolo[3,4-b]pyridin-4-yl)phenyl]methyl}-1H-1,2,4-triazole-5-carboxamide] | > 10000 nM | > 10000 nM |  | > 10000 nM | 
C=CC(=O)N1CC[C@@H](Nc2n[nH]c3nccc(-c4cc(F)cc(CNC(=O)c5noc(C(C)(C)C)n5)c4)c23)C1 [Example 88, 5-tert-butyl-N-{[3-fluoro-5-(3-{[(3R)-1-(prop-2-enoyl)pyrrolidin-3-yl]amino}-1H-pyrazolo[3,4-b]pyridin-4-yl)phenyl]methyl}-1,2,4-oxadiazole-3-carboxamide] | 287 nM | 2380 nM | 8 | 713 nM | 

Stronger by IC50 (Btk; [1]), values ahead:

IC50 (Btk; [1]) | IC50 (TEC) | TEC/Btk (TEC) | IC50 (panel of kinases) | IC50 (Btk; [2]) | SMILES
6.27 nM | 1730 nM | 276 | 1790 nM | < 10 nM | CC(C)(C)c1noc(C(=O)NCc2ccc(-c3ccnc4[nH]nc(N[C@@H]5CCNC5)c34)cc2F)n1 [Example 79, 3-tert-butyl-N-{[2-fluoro-4-(3-{[(3R)-pyrrolidin-3-yl]amino}-1H-pyrazolo[3,4-b]pyridin-4-yl)phenyl]methyl}-1,2,4-oxadiazole-5-carboxamide]
0.129 nM | 57 nM | 440 | 76 nM | < 10 nM | C=CC(=O)N1CC[C@@H](Nc2n[nH]c3nccc(-c4ccc(CNC(=O)c5cnn(C(C)(C)C)c5)c(F)c4)c23)C1 [Example 80, 1-tert-butyl-N-{[2-fluoro-4-(3-{[(3R)-1-(prop-2-enoyl)pyrrolidin-3-yl]amino}-1H-pyrazolo[3,4-b]pyridin-4-yl)phenyl]methyl}-1H-pyrazole-4-carboxamide]
0.227 nM | 131 nM | 577 | 89 nM | < 10 nM | C=CC(=O)N1CC[C@@H](Nc2n[nH]c3nccc(-c4ccc(CNC(=O)c5nnc(C(C)(C)C)o5)c(F)c4)c23)C1 [Example 81, 5-tert-butyl-N-{[2-fluoro-4-(3-{[(3R)-1-(prop-2-enoyl)pyrrolidin-3-yl]amino}-1H-pyrazolo[3,4-b]pyridin-4-yl)phenyl]methyl}-1,3,4-oxadiazole-2-carboxamide]
30.6 nM | 357 nM | 12 | 113 nM |  | C=CC(=O)N1CC[C@@H](Nc2n[nH]c3nccc(-c4ccc(CNC(=O)c5nc(C(C)(C)C)n[nH]5)c(F)c4)c23)C1 [Example 82, 3-tert-butyl-N-{[2-fluoro-4-(3-{[(3R)-1-(prop-2-enoyl)pyrrolidin-3-yl]amino}-1H-pyrazolo[3,4-b]pyridin-4-yl)phenyl]methyl}-1H-1,2,4-triazole-5-carboxamide]
0.056 nM | 28 nM | 493 | 52 nM | < 10 nM | C=CC(=O)N1CC[C@@H](Nc2n[nH]c3nccc(-c4ccc(CNC(=O)c5nc(C(C)(C)C)no5)c(F)c4)c23)C1 [Example 83, 3-tert-butyl-N-{[2-fluoro-4-(3-{[(3R)-1-(prop-2-enoyl)pyrrolidin-3-yl]amino}-1H-pyrazolo[3,4-b]pyridin-4-yl)phenyl]methyl}-1,2,4-oxadiazole-5-carboxamide]
7.83 nM | 361 nM | 46 | 87 nM | < 10 nM | C=CC(=O)N1CC[C@@H](Nc2n[nH]c3nccc(-c4ccc(CNC(=O)c5noc(CC)n5)c(F)c4)c23)C1 [Example 84, 5-ethyl-N-{[2-fluoro-4-(3-{[(3R)-1-(prop-2-enoyl)pyrrolidin-3-yl]amino}-1H-pyrazolo[3,4-b]pyridin-4-yl)phenyl]methyl}-1,2,4-oxadiazole-3-carboxamide]
0.19 nM | 110 nM | 579 | 115 nM | < 10 nM | C=CC(=O)N1CCC[C@@H](Nc2n[nH]c3nccc(-c4ccc(CNC(=O)c5noc(C(C)(C)C)n5)c(F)c4)c23)C1 [Example 85, 5-tert-butyl-N-{[2-fluoro-4-(3-{[(3R)-1-(prop-2-enoyl)piperidin-3-yl]amino}-1H-pyrazolo[3,4-b]pyridin-4-yl)phenyl]methyl}-1,2,4-oxadiazole-3-carboxamide]
0.242 nM | 213 nM | 880 | 218 nM | < 10 nM | C=CC(=O)N1CC[C@@H](Nc2n[nH]c3nccc(-c4ccc(C5(NC(=O)c6nc(C(C)(C)C)no6)CC5)cc4)c23)C1 [Example 86, 3-tert-butyl-N-{1-[4-(3-{[(3R)-1-(prop-2-enoyl)pyrrolidin-3-yl]amino}-1H-pyrazolo[3,4-b]pyridin-4-yl)phenyl]cyclopropyl}-1,2,4-oxadiazole-5-carboxamide]
1.43 nM | 685 nM | 479 | 276 nM | < 10 nM | C=CC(=O)N1CC[C@@H](Nc2n[nH]c3nccc(-c4ccc(CCNC(=O)c5noc(C(C)(C)C)n5)c(F)c4)c23)C1 [Example 87, 5-tert-butyl-N-{2-[2-fluoro-4-(3-{[(3R)-1-(prop-2-enoyl)pyrrolidin-3-yl]amino}-1H-pyrazolo[3,4-b]pyridin-4-yl)phenyl]ethyl}-1,2,4-oxadiazole-3-carboxamide]
